Experimental data as given in paper PMC7156736, “Phase 1 study of the pan-HER inhibitor dacomitinib plus the MEK1/2 inhibitor PD-0325901 in patients with KRAS-mutation-positive colorectal, non-small-cell lung and pancreatic cancer” (British Journal of Cancer, 2020).
Where two headings read alike, the source gives them in different places.

Tests used:
[1] = plasma pharmacokinetics in patients (HPLC–MS/MS, non-compartmental analysis); format: in vivo, human; details: for AUC(0-t) / Cmax / Tmax: human, plasma, oral; for AUC(0-t): read-out: AUC0-24h dacomitinib, mean (CV%); for Cmax: read-out: Cmax dacomitinib, mean (CV%); for Tmax: read-out: tmax dacomitinib, mean
Procedure: For pharmacokinetic analyses, serial blood samples were obtained from all patients prior to treatment administration on day 1, and 1, 2, 3, 4, 6, 8, 12, 24, 72 and 144 h after the first dose. On day 1 of cycle 2, blood samples were drawn before and 1, 2, 3, 4, 6, 8, 12 and 24 h after administration. Plasma samples were assayed using a validated high-performance liquid chromatography– tandem mass spectrometry method (HPLC–MS/MS). Briefly, dacomitinib and PD-0325901 were extracted from plasma by protein precipitation with a mixture of acetonitrile/methanol (1:1 v/v). Compounds were chromatographically separated using a Waters Xbridge BEH Phenyl column (50 ×2.1-mm ID, 5-μm particle size), and detection was performed using an API4000 tandem mass spectrometer equipped with a turbo ion spray interface, operating in the positive ion mode. Transitions from m/z 480 to 329 and m/z 489 to 255 were monitored for the detection of dacomitinib and PD-0325901, respectively. Stable isotope-labelled internal standards were used for the quantification. The lower and upper limits of quantification were, respectively, 0.5 and 50 ng/ml for dacomitinib, and 5 and 500 ng/ml for PD-0325901. Pharmacokinetic parameters were calculated in R using an in-house-developed validated script for non-compartmental pharmacokinetic analyses (version 3.6.0).[9]

HER2/HER3 = tested on: HER2/HER3; set-up: method as in unpublished data; details: ref unpublished data; cited from earlier work
HER2 = details: human catalytic domain of HER2; read-out: in vitro IC50; cited from earlier work
HER4 = details: human catalytic domain of HER4; read-out: in vitro IC50; cited from earlier work
HER1 = details: human catalytic domain of HER1; read-out: in vitro IC50; cited from earlier work
[2] = tested on: patients with KRASm CRC, NSCLC or pancreatic cancer; format: in vivo; details: dacomitinib QD continuous, PD-0325901 BID 21 days on/7 days off
From the text: . The starting doses were based on previous data from single-agent Phase 1 studies with both compounds, taking into account the potential for synergistic toxicity. […]. Dose-escalation decisions were based on safety evaluation of all evaluable patients, performed after completion of the first treatment cycle. Patients were considered evaluable for the dose-determining part of this study if at least one cycle of study treatment was completed, with the minimum safety evaluation conducted, and at least one administration of both drugs received, or if dose-limiting toxicity (DLT) had occurred during the first cycle. If one out of three patients experienced a DLT, the number of patients treated at that dose level was expanded to a maximum of six. […] Patients were continuing study treatment until disease progression, unacceptable toxicity or investigator/patient decision to discontinue.
Safety was monitored throughout the treatment by physical examination, laboratory assessments, electrocardiography, ophthalmic evaluation and collection of adverse events. Adverse events were recorded according to the Common Terminology Criteria for Adverse Events version 4.0. All adverse events that were possible, probable or definite related to study drug were considered as study/treatment related. […]

[3] = 15 mg, All 15 mg doses, Cycle 1 Day 1, n = 23
[4] = 15 mg, All 15 mg doses, Cycle 2 Day 1, n = 18
[5] = 30 mg, All 30 mg doses, Cycle 1 Day 1, n = 17
[6] = 30 mg, All 30 mg doses, Cycle 2 Day 1 or last day of concomitant use, n =11
[7] = Dose-level 1: dacomitinib 30 mg QD + PD-0325901 2 mg BID, Cycle 1 Day 1, n = 6
[8] = Dose-level 1: dacomitinib 30 mg QD + PD-0325901 2 mg BID, Cycle 2 Day 1, n = 6
[9] = Dose-level 2: dacomitinib 15 mg QD + PD-0325901 3 mg BID, Cycle 1 Day 1, n = 6
[10] = Dose-level 2: dacomitinib 15 mg QD + PD-0325901 3 mg BID, Cycle 2 Day 1, n = 5
[11] = Dose-level 3: dacomitinib 15 mg QD + PD-0325901 4 mg BID, Cycle 1 Day 1, n = 2
[12] = Dose-level 3: dacomitinib 15 mg QD + PD-0325901 4 mg BID, Cycle 2 Day 1, n = 2
[13] = Dose-level 4: dacomitinib 15 mg QD + PD-0325901 5 mg BID, Cycle 1 Day 1, n = 3
[14] = Dose-level 4: dacomitinib 15 mg QD + PD-0325901 5 mg BID, Cycle 2 Day 1, n = 3
[15] = Dose-level 5: dacomitinib 15 mg QD + PD-0325901 6 mg BID, Cycle 1 Day 1, n = 8
[16] = Dose-level 5: dacomitinib 15 mg QD + PD-0325901 6 mg BID, Cycle 2 Day 1, n = 5
[17] = Dose-level 6: dacomitinib 30 mg (4/3) QD + PD-0325901 6 mg BID, Cycle 1 Day 1, n = 3
[18] = Dose-level 6: dacomitinib 30 mg (4/3) QD + PD-0325901 6 mg BID, last day of concomitant use of both drugs, n = 1
[19] = Dose-level 7: dacomitinib 30 mg (5/2) QD + PD-0325901 6 mg (5/2) BID, Cycle 1 Day 1, n = 3
[20] = Dose-level 7: dacomitinib 30 mg (5/2) QD + PD-0325901 6 mg (5/2) BID, last day of concomitant use of both drugs, n = 2
[21] = Dose-level 8: dacomitinib 30 mg (5/2) QD + PD-0325901 5 mg (5/2) BID, Cycle 1 Day 1, n = 5
[22] = Dose-level 8: dacomitinib 30 mg (5/2) QD + PD-0325901 5 mg (5/2) BID, last day of concomitant use of both drugs, n=2
[23] = Dose-level -1: dacomitinib 15 mg QD + PD-0325901 2 mg BID, Cycle 1 Day 1, n = 4
[24] = Dose-level -1: dacomitinib 15 mg QD + PD-0325901 2 mg BID, Cycle 2 Day 1, n = 3

## COc1cc2ncnc(Nc3ccc(F)c(Cl)c3)c2cc1NC(=O)/C=C/CN1CCCCC1 [dacomitinib]
[1]; 15 mg dacomitinib doses, for a substantial number of patients
  plasma concentration versus preclinical target of 22 ng/ml: did not exceed the preclinical target
[1]; across dose levels
  increase of exposure with dose: approximately dose-proportionally
[1]; [3]
  AUC(0-t): 122 ng·h/mL
  Cmax: 8.6 ng/mL
  Tmax: 7.6 h
[1]; [4]
  AUC(0-t): 616 ng·h/mL
  Cmax: 31.2 ng/mL
  Tmax: 7.2 h
[1]; [5]
  AUC(0-t): 250 ng·h/mL
  Cmax: 16 ng/mL
  Tmax: 8.3 h
[1]; [6]
  AUC(0-t): 909 ng·h/mL
  Cmax: 51.7 ng/mL
  Tmax: 4.8 h
[1]; [7]
  AUC(0-t): 318 ng·h/mL
  Cmax: 19.2 ng/mL
  Tmax: 7.5 h
[1]; [8]
  AUC(0-t): 888 ng·h/mL
  Cmax: 47.4 ng/mL
  Tmax: 7.6 h
[1]; [9]
  AUC(0-t): 112 ng·h/mL
  Cmax: 6.7 ng/mL
  Tmax: 8.7 h
[1]; [10]
  AUC(0-t): 549 ng·h/mL
  Cmax: 26 ng/mL
  Tmax: 9.6 h
[1]; [11]
  AUC(0-t): 45 ng·h/mL
  Cmax: 2.5 ng/mL
  Tmax: 12 h
[1]; [12]
  AUC(0-t): 262 ng·h/mL
  Cmax: 25.7 ng/mL
  Tmax: 2 h
[1]; [13]
  AUC(0-t): 137 ng·h/mL
  Cmax: 8.5 ng/mL
  Tmax: 4.7 h
[1]; [14]
  AUC(0-t): 654 ng·h/mL
  Cmax: 33.5 ng/mL
  Tmax: 5 h
[1]; [15]
  AUC(0-t): 136 ng·h/mL
  Cmax: 11.4 ng/mL
  Tmax: 7.9 h
[1]; [16]
  AUC(0-t): 747 ng·h/mL
  Cmax: 37.3 ng/mL
  Tmax: 4.4 h
[1]; [17]
  AUC(0-t): 159 ng·h/mL
  Cmax: 11.1 ng/mL
  Tmax: 7.3 h
[1]; [18]
  AUC(0-t): 647 ng·h/mL
  Cmax: 32 ng/mL
  Tmax: 8 h
[1]; [19]
  AUC(0-t): 290 ng·h/mL
  Cmax: 19.1 ng/mL
  Tmax: 13.3 h
[1]; [20]
  AUC(0-t): 658 ng·h/mL
  Cmax: 37.5 ng/mL
  Tmax: 4.5 h
[1]; [21]
  AUC(0-t): 200 ng·h/mL
  Cmax: 14.2 ng/mL
  Tmax: 6.6 h
[1]; [22]
  AUC(0-t): 789 ng·h/mL
  Cmax: 55.9 ng/mL
  Tmax: 4.5 h
[1]; [23]
  AUC(0-t): 126 ng·h/mL
  Cmax: 7.9 ng/mL
  Tmax: 5.6 h
[1]; [24]
  AUC(0-t): 513 ng·h/mL
  Cmax: 26.3 ng/mL
  Tmax: 11 h
[1]; patients, combination treatment
  increase of mean Cmax and AUC0–24h after multiple dosing (accumulation): 3- to 5 fold
HER2/HER3
  IC50 for HER2/HER3 inhibition (preclinical target plasma concentration): 0.022 µg/mL
HER2
  IC50: 45.7 nM
HER4
  IC50: 74 nM
HER1
  IC50: 6 nM
[2]
  recommended Phase 2 dose (RP2D) / established maximum dose level in the combination with continuous dacomitinib dosing: 15 mg
